The values that follow come from patent publication US20200010562A1, “NEW THERAPEUTIC STRATEGIES AGAINST BLOOD CANCER” (priority 2015, published 2020).

Like-named read-outs stand apart in the source and are kept apart here.

For one series, the system named is MEC2. Put plainly: Survival/mortality of MEC2 in control or FMD medium. Type of series: cell-based, human. The conditions noted are these: for effect of FMD medium on growth inhibitory effect of the drug: FMD vs control medium.
The subject of a further series is MEC1. As to the kind of experiment: Survival/mortality of MEC1 in control or FMD medium. The conditions noted are these: for effect of FMD medium on growth inhibitory effect of the drug: FMD vs control medium. It is filed as cell-based, human.
The next series concerns L1210. Put plainly: Erythrosin B exclusion survival/mortality of L1210 in control or FMD medium. It is filed as cell-based, murine.
The test system of series [1] is MEC1 cells. Put plainly: In vivo CLL model, histopathological analysis of organs (H&E). Also noted: species or system Rag2−/−γc−/− female mice. The conditions noted are these: majority of organs. The method, then: (§1) Eight-week-old Rag2−/−γ c−/− female mice were challenged intravenously (iv) via lateral tail veins with 10×10^6 MEC1 cells in 0.1 ml of saline through a 27-gauge needle, as previously described by Bertilaccio et al., (2010). Before injection, cells in log phase of growth were harvested and suspended in phosphate-buffered saline (PBS) at 100×10^6 cells/ml, and 100 μl (10×10^6 cells per mouse) was injected iv. All mice were gently warmed before intravenous injections to dilate the veins. Body weights were determined daily, and tumor progression was determined by blood smear. Animals were monitored every day for weight and general health conditions and were sacrificed when they experienced clinical signs of illness following the criteria approved and described in the protocol #742/2015—PR (see Animal Ethics Statement).
(§2) Animals were fasted for a total of 48 hours by complete deprivation of food but with free access to water. […] Body weight was measured daily and immediately before and after fasting. […]
For morphological analysis, organs (BM, spleen, kidney, liver and lung) were formalin-fixed, paraffin-embedded, cut at 3-μm-thick sections, and stained with hematoxylin and eosin. Histologic sections were evaluated in a double-blinded fashion. […] For these mice groups, the morphology of analyzed organ was similar to the control ([…]).

Series [2] has as its system MEC1 cells. Put plainly: In vivo CLL model, FACS for human CD19/CD20/CD45 leukemic cells in tissues. Also noted: species or system Rag2−/−γc−/− female mice. The conditions noted are these: in combination with STS; majority of analyzed tissues. The method, then: as §1, §2
For FACS analysis, after blocking fragment crystallizable receptors for 10 minutes at room temperature to avoid nonspecific binding of antibodies, cells from PB, BM, peritoneal exudates, and spleen were stained with PE-Vio770 anti-human CD19 antibody. FITC anti-human CD20 and TRITC anti-human CD45 anti-human, respectively (MACS Miltenyi Biotec) and analyzed with BD FACSCANTO II flow cytometer. […]

For the next series, the system named is CD20. The conditions noted are these: rituximab-resistant cell lines in vitro; cited from earlier work.
Series [3] is described as follows: In vivo CLL model, spleen weight. Details: species or system Rag2−/−γc−/− female mice. The conditions noted are these: fasted (STS) groups. As for the experimental part: as §1
Animals were fasted for a total of 48 hours by complete deprivation of food but with free access to water. Mice were individually housed in a clean new cage to reduce cannibalism, coprophagy, and residual chow. Body weight was measured daily and immediately before and after fasting. […]
At the end of experimental procedure, peripheral blood (PB), peritoneal exudates and organs [spleen, kidneys, liver, lungs, and femoral bone marrow (BM)] were collected and analyzed either for FACS or morphological analyses. For all experimental group, spleen weight was measured (FIG. 21).

Series [4] deals with primary embryonic mouse fibroblast (MEF). The conditions noted are these: 24 h, 10 μM.
Series [5] relates to relapsed and refractory indolent lymphomas. The conditions noted are these: single agent; cited from earlier work.
Setting [6] is: alone or in combination with low glucose/FCS (FMD).

On to `O=C(/C=C/c1cccc(S(=O)(=O)Nc2ccccc2)c1)NO` [Belinostat], for which the “effect of FMD medium on growth inhibitory effect of the drug” value with MEC2 and in the series with MEC1 was “remarkably improved” in each case. The killing tumor cells entry in the series with L1210 is reported as “very effective in killing tumor cells”.

For the molecule `CC(C)C[C@H](NC(=O)[C@H](Cc1ccccc1)NC(=O)c1cnccn1)B(O)O` [Bortezomib], the “effect of FMD medium on growth inhibitory effect of the drug” value in the series on MEC2 and in the series with MEC1 was “remarkably improved” in each case. The “metastases and cluster of infiltration” value with MEC1 cells [1] (ad lib) and with MEC1 cells [1] (with STS) was “lesser expanse” each time. The “expression of human CD19, human CD20 and human CD45” value in the series with MEC1 cells [2] is recorded as “significantly decreases”. Also, the CD20 expression result in the series with CD20 is recorded as “increases CD20 expression”. Further, in series [3], the spleen weight entry was “significantly lower”. The killing tumor cells result in the series with L1210 was “very effective in killing tumor cells”.

For the molecule `COc1cc(/C=C/C(=O)CC(=O)/C=C/c2ccc(O)c(OC)c2)ccc1O` [Curcumin], the reducing survival rates entry in the series on L1210 (setting [6]) is on record as “did not show a strong efficiency”.

In the case of `O=P1(N(CCCl)CCCl)NCCCO1` (stereo not drawn) [Cyclophosphamide], the killing tumor cells result in the series with L1210 is on record as “very effective in killing tumor cells”.

Take `C[C@]12C=CC(=O)C=C1CC[C@@H]1[C@@H]2C(=O)C[C@@]2(C)[C@H]1CC[C@]2(O)C(=O)CO` [Prednisone]: the reducing survival rates entry in the series with L1210 (setting [6]) was “did not show a strong efficiency”. In addition, in the series with L1210 (independently of the application of the FMD), the “effect on L1210 growth” value is listed as “no or limited effect”.

In the case of `C/C=C1\NC(=O)[C@H]2CSSCC/C=C/[C@H](CC(=O)N[C@H](C(C)C)C(=O)N2)OC(=O)[C@H](C(C)C)NC1=O` [Romidepsin], in [4], the “decrease of percentage of surviving cells” value is “about 50%”, the mortality rate entry is reported as “about 12%”, the percentage of mortality stood at 4% and the survival rate result is recorded as “about 77%”.

For the molecule `O=C1O[C@H]([C@@H](O)CO)C(O)=C1O` [Vitamin C, L-Ascorbic acid], the reducing survival rates entry in the series on L1210 is on record as “did not show a strong efficiency”.

Regarding (−)Epigallocatechin Gallate [EGCG], in the series on L1210, the reducing survival rates result is “did not show a strong efficiency”.

Turning to Rituximab, the “effect on cell survival and death” value in the series with MEC2 and with MEC1 was “very effective” throughout. Moreover, the overall response rate in series [5] was 50%.
